Values after ≈ are worked out from the molar mass of the structure shown. Where a SMILES comes first, the peptide text is derived from it. Where no end group is shown, it is not given here. [ ]: non-standard residue; d: D form.
What was measured:
Lactobacilli ATCC 25258 = type: cell-based; conditions: ATCC 25258, 18 h
Experimental: (§1) The peptide’s minimal inhibitory concentration (MIC) was examined as previously described.[44] In brief, sterile 96-well U-bottom polystyrene plates were used to evaluate peptide activity. Bacterial cells including S. Typhi ATCC 14028s, E. coli ATCC 35218, S. aureus ATCC P8538, and Lactobacilli ATCC 25258 were cultured in Mueller Hinton broth (MHB) at 37 °C overnight. The cells were then washed, centrifuged, and re-suspended in MHB medium. Afterward, 50 μL aliquots of suspended bacteria (1 × 10^6 colony forming units, CFU mL^–1) were added to 50 μL BM2 medium, which contained peptides in serial twofold dilutions. The plates were then incubated at 37 °C for 18 h. The inhibition of growth was determined by measuring the absorbance at 600 nm using a microplate autoreader. The MIC was defined as the concentration at which 90% growth inhibition was observed after 18 h of incubation.

S. aureus ATCC P8538 = type: cell-based, Staphylococcus aureus; conditions: ATCC P8538, 18 h
Experimental: as §1

RAW 264.7 cells = test: XTT cytotoxicity / LD50 calculation; type: cell-based, murine; conditions: XTT, RAW 264.7 macrophages
Experimental: (§2) LD50 is the calculated amount of chemical that causes the death of 50% of the population tested, in this case, RAW 264.7. Each well was seeded with 1 × 10^5 cells 1 day before the experiment. Peptides were added in several doses and incubated with the cells for 2 h, followed by 2 h of XTT. We performed a linear graph and calculated the concentration in which 50% were dead.
(§3) DMEM supplemented with low endotoxin FBS (10%), L-glutamine (1%), sodium pyruvate (1%), pen–strep (1%), and unessential amino acids (1%) was used to grow RAW 264.7 cells at 37 °C in a humidified atmosphere containing 5% CO2 and 95% air. A 96-well Falcon plate was utilized for the assay, with each well containing 1 × 10^5 cells in a 200 μL medium, cultured overnight and washed with phosphate-buffered saline (PBS) before the experiment. Peptides were added to the wells at various concentrations for 2 h, followed by XTT with fresh medium for another 2 h. The optical density was measured at 450 nm using an enzyme-linked immunosorbent assay plate reader, and cell viability was determined relative to the control.

[1] = XTT cytotoxicity / LD50 calculation; type: cell-based, murine; conditions: mouse, RAW 264.7 cells (macrophages); peptides 2 h, then XTT 2 h; concentration at which 50% of cells were dead, from linear graph
Experimental: as §2, §3

S. Typhi ATCC 14028s = type: cell-based, Salmonella Typhi; conditions: ATCC 14028, 18 h
Experimental: as §1

E. coli ATCC 35218 = type: cell-based, Escherichia coli; conditions: ATCC 35218, 18 h
Experimental: as §1

pig erythrocytes = type: cell-based; conditions: pH 7.3
Experimental: To examine the hemolytic properties of the peptides, a concentration of 100 μM was used. A 4% suspension of pig erythrocytes, freshly collected and washed three times in phosphate-buffered saline (PBS, pH 7.3), was used for this purpose. After incubation at 37 °C for 1 h, the suspension was centrifuged at 800g for 10 min, and the absorbance at 540 nm was measured. Complete hemolysis was determined by adding 1% Triton X-100, while adding only PBS was used to determine 0% hemolysis.The hemolysis calculation was as follows: % hemolysis = (ODPeptide – ODBuffer)/(ODTriton1% – ODBuffer) × 100.

KKKKKKKGIGFLAFGAFVKILK-NH2 [MSI-N7K]
MIC Lactobacilli ATCC 25258 (Lactobacilli ATCC 25258): 25 µM
MIC S. aureus ATCC P8538 (S. aureus ATCC P8538): 25 µM
Concentration toxic to RAW 264.7 cells (RAW 264.7 cells): 60 µM
CC50 at 2 h [1]: 60.9 µM
MIC S. Typhi ATCC 14028s (S. Typhi ATCC 14028s): 25 µM
MIC E. coli ATCC 35218 (E. coli ATCC 35218): 25 µM
% hemolysis (100 μM) (pig erythrocytes): 10 ± 5.6%

CC[C@H](C)[C@H](NC(=O)CNC(=O)[C@H](CCCCN)NC(=O)[C@H](CCCCN)NC(=O)[C@H](CCCCN)NC(=O)[C@H](CCCCN)NC(=O)[C@@H](N)CCCCN)C(=O)NCC(=O)N[C@H](Cc1ccccc1)C(=O)N[C@@H](CC(C)C)C(=O)N[C@@H](C)C(=O)N[C@H](Cc1ccccc1)C(=O)NCC(=O)N[C@@H](C)C(=O)N[C@@H](Cc1ccccc1)C(=O)N[C@H](C(=O)N[C@H](C(=O)N[C@@H](CC(C)C)C(=O)N[C@@H](CCCCN)C(=O)N[C@@H](CCCCN)C(=O)N[C@@H](CCCCN)C(=O)N[C@@H](CCCCN)C(N)=O)[C@@H](C)CC)C(C)C [MSI-Seg-F2F] (H-KKKKKGIG[dF]LA[dF]GAFVILKKKK-NH2)
MIC Lactobacilli ATCC 25258 (Lactobacilli ATCC 25258): 12.5 µM (≈ 31 µg/mL)
MIC S. aureus ATCC P8538 (S. aureus ATCC P8538): 12.5 µM (≈ 31 µg/mL)
CC50 at 2 h [1]: > 100 µM
MIC S. Typhi ATCC 14028s (S. Typhi ATCC 14028s): 25 µM (≈ 61.9 µg/mL)
MIC E. coli ATCC 35218 (E. coli ATCC 35218): 12.5 µM (≈ 31 µg/mL)
% hemolysis (100 μM) (pig erythrocytes): 8.1 ± 3.2%

KKKKKFIGLFAGGIVLAFKKKK-NH2 [MSI-Seg-Scr]
MIC Lactobacilli ATCC 25258 (Lactobacilli ATCC 25258): 12.5 µM
MIC S. aureus ATCC P8538 (S. aureus ATCC P8538): 12.5 µM
CC50 at 2 h [1]: > 100 µM
MIC S. Typhi ATCC 14028s (S. Typhi ATCC 14028s): 25 µM
MIC E. coli ATCC 35218 (E. coli ATCC 35218): 12.5 µM
% hemolysis (100 μM) (pig erythrocytes): 3.9 ± 1.4%

KKKKKGIGGLAGGAFVILKKKK-NH2 [MSI-Seg-F2G]
MIC Lactobacilli ATCC 25258 (Lactobacilli ATCC 25258): >50 µM
MIC S. aureus ATCC P8538 (S. aureus ATCC P8538): 25 µM
CC50 at 2 h [1]: > 100 µM
MIC S. Typhi ATCC 14028s (S. Typhi ATCC 14028s): >50 µM
MIC E. coli ATCC 35218 (E. coli ATCC 35218): >50 µM
% hemolysis (100 μM) (pig erythrocytes): 1.2 ± 30.2%

KKKKKGIGFLAFGAFVILKKKK-NH2 [MSI-Seg]
MIC Lactobacilli ATCC 25258 (Lactobacilli ATCC 25258): >50 µM
MIC S. aureus ATCC P8538 (S. aureus ATCC P8538): 12.5 µM
CC50 at 2 h [1]: > 100 µM
MIC S. Typhi ATCC 14028s (S. Typhi ATCC 14028s): 25 µM
MIC E. coli ATCC 35218 (E. coli ATCC 35218): 12.5 µM
% hemolysis (100 μM) (pig erythrocytes): 16.6 ± 4.2%

GIGKFLKKAKKFGKAFVKILKK-NH2 [MSI-78, Pexiganan]
MIC Lactobacilli ATCC 25258 (Lactobacilli ATCC 25258): 1.56 µM
MIC S. aureus ATCC P8538 (S. aureus ATCC P8538): 6.25 µM
Concentration toxic to RAW 264.7 cells (RAW 264.7 cells): 40 µM
CC50 at 2 h [1]: 43.1 µM
MIC S. Typhi ATCC 14028s (S. Typhi ATCC 14028s): 12.5 µM
MIC E. coli ATCC 35218 (E. coli ATCC 35218): 3.12 µM
% hemolysis (100 μM) (pig erythrocytes): 15.2 ± 1.1%

Source: publication PMC10210221, “Interaction of Pexiganan (MSI-78)-Derived Analogues Reduces Inflammation and TLR4-Mediated Cytokine Secretion: A Comparative Study” (ACS Omega, 2023)
